# Results published in ChEMBL document CHEMBL3885881, “DrugMatrix”.
# Organism: Rattus norvegicus
# Assay: DrugMatrix - Regimen: Daily Repeat
# Assay type: toxicity, organism-based, Sprague-Dawley
# Parameters: regimen Daily Repeat, gender Male, age 6-8 weeks
# Details: in vivo, po, route oral GAVAGE, […]; for ABSOLUTE BASOPHIL / ABSOLUTE EOSINOPHIL / ABSOLUTE LYMPHOCYTE / ABSOLUTE MONOCYTE / ABSOLUTE SEGMENTED NEUTROPHIL / BASOPHIL / EOSINOPHIL / ERYTHROCYTE COUNT / HEMATOCRIT / HEMOGLOBIN / LEUKOCYTE COUNT / LYMPHOCYTE / MEAN CORPUSCULAR HEMOGLOBIN / MEAN CORPUSCULAR HEMOGLOBIN CONCENTRATION / MEAN CORPUSCULAR VOLUME / MONOCYTE / NEUTROPHIL / NUCLEATED RED BLOOD CELLS / PLATELET COUNT: tissue Blood; for ALANINE AMINOTRANSFERASE / ALBUMIN / ALKALINE PHOSPHATASE / ASPARTATE AMINOTRANSFERASE / BLOOD UREA NITROGEN / CARBON DIOXIDE / CHLORIDE / CHOLESTEROL / CREATINE PHOSPHOKINASE / CREATININE / GLUCOSE / LACTATE DEHYDROGENASE / LIPASE / PHOSPHORUS / POTASSIUM / SODIUM / TOTAL BILIRUBIN / TOTAL PROTEIN / URIC ACID: tissue Plasma
# [1] = 0 mg/kg, 72 h, dose level Control, time 3 day
# [2] = 0 mg/kg, 120 h, dose level Control, time 5 day
# [3] = 43 mg/kg, 72 h, dose level Low, time 3 day
# [4] = 43 mg/kg, 120 h, dose level Low, time 5 day
smiles,measurement,setting,value
Clc1ccc(COC(Cn2ccnc2)c2ccc(Cl)cc2Cl)cc1 (configuration not stated) [ECONAZOLE],ABSOLUTE BASOPHIL,[1],0 CELLS/uL
same,ABSOLUTE EOSINOPHIL,[1],0 CELLS/uL
same,ABSOLUTE LYMPHOCYTE,[1],7601 CELLS/uL
same,ABSOLUTE MONOCYTE,[1],354.33 CELLS/uL
same,ABSOLUTE SEGMENTED NEUTROPHIL,[1],744.67 CELLS/uL
same,BASOPHIL,[1],0%
same,EOSINOPHIL,[1],0%
same,ERYTHROCYTE COUNT,[1],5.03 x10E6/uL
same,HEMATOCRIT,[1],33.7%
same,HEMOGLOBIN,[1],13.43 G/DL
same,LEUKOCYTE COUNT,[1],8.7 x10E3/uL
same,LYMPHOCYTE,[1],86.33%
same,MEAN CORPUSCULAR HEMOGLOBIN,[1],26.7 pg
same,MEAN CORPUSCULAR HEMOGLOBIN CONCENTRATION,[1],39.83 G/DL
same,MEAN CORPUSCULAR VOLUME,[1],67 fL
same,MONOCYTE,[1],4.67%
same,NEUTROPHIL,[1],9%
same,NUCLEATED RED BLOOD CELLS,[1],0 /100WBC
same,PLATELET COUNT,[1],1151 x10E3/uL
same,ALANINE AMINOTRANSFERASE,[1],97.67 u/L
same,ALBUMIN,[1],4.07 G/DL
same,ALKALINE PHOSPHATASE,[1],607.67 u/L
same,ASPARTATE AMINOTRANSFERASE,[1],101 u/L
same,BLOOD UREA NITROGEN,[1],13.33 mg/dL
same,CARBON DIOXIDE,[1],36 mmol/L
same,CHLORIDE,[1],99.67 MEQ/L
same,CHOLESTEROL,[1],75.67 mg/dL
same,CREATINE PHOSPHOKINASE,[1],279.67 u/L
same,CREATININE,[1],0.16 mg/dL
same,GLUCOSE,[1],164 mg/dL
same,LACTATE DEHYDROGENASE,[1],115 u/L
same,LIPASE,[1],12.67 u/L
same,PHOSPHORUS,[1],8.77 mg/dL
same,POTASSIUM,[1],5.79 MEQ/L
same,SODIUM,[1],142.83 MEQ/L
same,TOTAL BILIRUBIN,[1],0.27 mg/dL
same,TOTAL PROTEIN,[1],5.8 G/DL
same,URIC ACID,[1],0.67 mg/dL
same,ABSOLUTE BASOPHIL,[2],0 CELLS/uL
same,ABSOLUTE EOSINOPHIL,[2],0 CELLS/uL
same,ABSOLUTE LYMPHOCYTE,[2],4426.33 CELLS/uL
same,ABSOLUTE MONOCYTE,[2],102.67 CELLS/uL
same,ABSOLUTE SEGMENTED NEUTROPHIL,[2],337.67 CELLS/uL
same,BASOPHIL,[2],0%
same,EOSINOPHIL,[2],0%
same,ERYTHROCYTE COUNT,[2],5.31 x10E6/uL
same,HEMATOCRIT,[2],32.5%
same,HEMOGLOBIN,[2],13.17 G/DL
same,LEUKOCYTE COUNT,[2],4.87 x10E3/uL
same,LYMPHOCYTE,[2],90.33%
same,MEAN CORPUSCULAR HEMOGLOBIN,[2],24.93 pg
same,MEAN CORPUSCULAR HEMOGLOBIN CONCENTRATION,[2],40.67 G/DL
same,MEAN CORPUSCULAR VOLUME,[2],61.33 fL
same,MONOCYTE,[2],2.33%
same,NEUTROPHIL,[2],7.33%
same,NUCLEATED RED BLOOD CELLS,[2],0.33 /100WBC
same,PLATELET COUNT,[2],848.33 x10E3/uL
same,ALANINE AMINOTRANSFERASE,[2],59.67 u/L
same,ALBUMIN,[2],3.87 G/DL
same,ALKALINE PHOSPHATASE,[2],452 u/L
same,ASPARTATE AMINOTRANSFERASE,[2],81.33 u/L
same,BLOOD UREA NITROGEN,[2],13.67 mg/dL
same,CARBON DIOXIDE,[2],26.33 mmol/L
same,CHLORIDE,[2],103.67 MEQ/L
same,CHOLESTEROL,[2],65.67 mg/dL
same,CREATINE PHOSPHOKINASE,[2],355.33 u/L
same,CREATININE,[2],0.14 mg/dL
same,GLUCOSE,[2],171.33 mg/dL
same,LACTATE DEHYDROGENASE,[2],118 u/L
same,LIPASE,[2],11.33 u/L
same,PHOSPHORUS,[2],11.13 mg/dL
same,POTASSIUM,[2],5.18 MEQ/L
same,SODIUM,[2],143.17 MEQ/L
same,TOTAL BILIRUBIN,[2],0.2 mg/dL
same,TOTAL PROTEIN,[2],5.87 G/DL
same,URIC ACID,[2],0.63 mg/dL
same,ABSOLUTE BASOPHIL,[3],0 CELLS/uL
same,ABSOLUTE EOSINOPHIL,[3],68.67 CELLS/uL
same,ABSOLUTE LYMPHOCYTE,[3],8555.33 CELLS/uL
same,ABSOLUTE MONOCYTE,[3],189.33 CELLS/uL
same,ABSOLUTE SEGMENTED NEUTROPHIL,[3],653.33 CELLS/uL
same,BASOPHIL,[3],0%
same,EOSINOPHIL,[3],0.67%
same,ERYTHROCYTE COUNT,[3],4.93 x10E6/uL
same,HEMATOCRIT,[3],32.1%
same,HEMOGLOBIN,[3],12.8 G/DL
same,LEUKOCYTE COUNT,[3],9.47 x10E3/uL
same,LYMPHOCYTE,[3],90.67%
same,MEAN CORPUSCULAR HEMOGLOBIN,[3],25.97 pg
same,MEAN CORPUSCULAR HEMOGLOBIN CONCENTRATION,[3],39.9 G/DL
same,MEAN CORPUSCULAR VOLUME,[3],65.1 fL
same,MONOCYTE,[3],2%
same,NEUTROPHIL,[3],6.67%
same,NUCLEATED RED BLOOD CELLS,[3],0 /100WBC
same,PLATELET COUNT,[3],1050.67 x10E3/uL
same,ALANINE AMINOTRANSFERASE,[3],100.33 u/L
same,ALBUMIN,[3],3.8 G/DL
same,ALKALINE PHOSPHATASE,[3],429 u/L
same,ASPARTATE AMINOTRANSFERASE,[3],104.67 u/L
same,BLOOD UREA NITROGEN,[3],11.33 mg/dL
same,CARBON DIOXIDE,[3],37.67 mmol/L
same,CHLORIDE,[3],107 MEQ/L
same,CHOLESTEROL,[3],72.33 mg/dL
same,CREATINE PHOSPHOKINASE,[3],331 u/L
same,CREATININE,[3],0.19 mg/dL
same,GLUCOSE,[3],156.67 mg/dL
same,LACTATE DEHYDROGENASE,[3],94 u/L
same,LIPASE,[3],10.33 u/L
same,PHOSPHORUS,[3],9.27 mg/dL
same,POTASSIUM,[3],5.1 MEQ/L
same,SODIUM,[3],138.9 MEQ/L
same,TOTAL BILIRUBIN,[3],0.13 mg/dL
same,TOTAL PROTEIN,[3],5.6 G/DL
same,URIC ACID,[3],0.57 mg/dL
same,ABSOLUTE BASOPHIL,[4],0 CELLS/uL
same,ABSOLUTE EOSINOPHIL,[4],31.33 CELLS/uL
same,ABSOLUTE LYMPHOCYTE,[4],7327.67 CELLS/uL
same,ABSOLUTE MONOCYTE,[4],294.67 CELLS/uL
same,ABSOLUTE SEGMENTED NEUTROPHIL,[4],379.67 CELLS/uL
same,BASOPHIL,[4],0%
same,EOSINOPHIL,[4],0.33%
same,ERYTHROCYTE COUNT,[4],5.33 x10E6/uL
same,HEMATOCRIT,[4],33.3%
same,HEMOGLOBIN,[4],13 G/DL
same,LEUKOCYTE COUNT,[4],8.03 x10E3/uL
same,LYMPHOCYTE,[4],91%
same,MEAN CORPUSCULAR HEMOGLOBIN,[4],24.4 pg
same,MEAN CORPUSCULAR HEMOGLOBIN CONCENTRATION,[4],39.07 G/DL
same,MEAN CORPUSCULAR VOLUME,[4],62.47 fL
same,MONOCYTE,[4],3.67%
same,NEUTROPHIL,[4],5%
same,NUCLEATED RED BLOOD CELLS,[4],0 /100WBC
same,PLATELET COUNT,[4],1117.67 x10E3/uL
same,ALANINE AMINOTRANSFERASE,[4],59 u/L
same,ALBUMIN,[4],3.97 G/DL
same,ALKALINE PHOSPHATASE,[4],377.67 u/L
same,ASPARTATE AMINOTRANSFERASE,[4],79 u/L
same,BLOOD UREA NITROGEN,[4],12.33 mg/dL
same,CARBON DIOXIDE,[4],28.67 mmol/L
same,CHLORIDE,[4],104.33 MEQ/L
same,CHOLESTEROL,[4],71.33 mg/dL
same,CREATINE PHOSPHOKINASE,[4],198.33 u/L
same,CREATININE,[4],0.22 mg/dL
same,GLUCOSE,[4],162 mg/dL
same,LACTATE DEHYDROGENASE,[4],63 u/L
same,LIPASE,[4],12.33 u/L
same,PHOSPHORUS,[4],10.33 mg/dL
same,POTASSIUM,[4],5.68 MEQ/L
same,SODIUM,[4],144.73 MEQ/L
same,TOTAL BILIRUBIN,[4],0.17 mg/dL
same,TOTAL PROTEIN,[4],5.93 G/DL
same,URIC ACID,[4],0.5 mg/dL
